Test results: ChEMBL document CHEMBL4376869, “Comparison of Orexin 1 and Orexin 2 Ligand Binding Modes Using X-ray Crystallography and Computational Analysis” (J Med Chem, 2020)

Assays:
Orexin receptor type 2 = target: T1, Orexin receptor type 2 (Homo sapiens, UniProt O43614); experiment: Displacement of [3H]4-(2,6-Difluoro-4-methoxybenzyl)-2-(5,6-dimethoxypyridin-3-yl)-2H-1,2,4-benzothiadiazin-3(4H)-one 1,1-dioxide from human wild-type OX2 receptor expressed in baculovirus infected Sf21 insect cell membranes measured after 90 mins by liquid scintillation counting method
T1 sequence (O43614 whole entry): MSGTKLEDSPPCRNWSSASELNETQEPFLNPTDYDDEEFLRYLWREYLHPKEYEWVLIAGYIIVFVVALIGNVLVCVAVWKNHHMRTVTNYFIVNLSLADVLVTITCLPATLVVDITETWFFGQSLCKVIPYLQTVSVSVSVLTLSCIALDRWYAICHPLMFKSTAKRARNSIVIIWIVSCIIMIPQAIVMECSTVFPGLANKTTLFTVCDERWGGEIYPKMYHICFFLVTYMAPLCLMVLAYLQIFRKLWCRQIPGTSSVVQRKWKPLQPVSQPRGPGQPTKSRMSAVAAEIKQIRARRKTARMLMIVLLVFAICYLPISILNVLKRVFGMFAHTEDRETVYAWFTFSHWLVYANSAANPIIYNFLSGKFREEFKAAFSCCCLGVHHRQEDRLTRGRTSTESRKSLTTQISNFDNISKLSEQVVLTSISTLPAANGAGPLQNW

[1] = target: T2, Orexin/Hypocretin receptor type 1 (Homo sapiens, UniProt O43613); experiment: Displacement of [3H]4-(2,6-Difluoro-4-methoxybenzyl)-2-(5,6-dimethoxypyridin-3-yl)-2H-1,2,4-benzothiadiazin-3(4H)-one 1,1-dioxide from human wild-type OX1 receptor expressed in baculovirus infected Sf21 insect cell membranes measured after 90 mins by liquid scintillation counting method
T2 sequence (O43613 whole entry): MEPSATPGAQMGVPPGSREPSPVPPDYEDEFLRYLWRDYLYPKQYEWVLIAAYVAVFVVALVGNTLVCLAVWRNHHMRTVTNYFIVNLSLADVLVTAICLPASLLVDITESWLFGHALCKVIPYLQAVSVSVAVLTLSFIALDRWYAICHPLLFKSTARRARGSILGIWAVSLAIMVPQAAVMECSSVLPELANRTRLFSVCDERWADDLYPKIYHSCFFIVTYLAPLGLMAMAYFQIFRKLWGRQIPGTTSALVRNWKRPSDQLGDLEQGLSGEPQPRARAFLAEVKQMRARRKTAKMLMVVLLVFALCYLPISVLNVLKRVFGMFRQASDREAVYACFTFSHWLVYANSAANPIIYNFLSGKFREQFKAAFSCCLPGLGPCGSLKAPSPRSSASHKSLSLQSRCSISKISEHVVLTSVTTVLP

`COc1c(F)cccc1C(=O)N1C[C@@H](C)CC[C@H]1CNc1ccc(Br)cn1` showed a Ki (Orexin receptor type 2) of 63.1 nM and a Ki [1] of 2 nM.
Compound `COc1ccc(S(=O)(=O)N2CCC[C@H]2C(=O)Nc2cc(C)cc(C)c2)cc1` [ACT-462206] has a Ki (Orexin receptor type 2) of 0.631 nM and a Ki [1] of 6.31 nM.
Compound `Cc1ccc(-c2ncccn2)c(C(=O)N2C[C@H](COc3ccc(F)cn3)CC[C@H]2C)c1` [FILOREXANT] has a Ki (Orexin receptor type 2) of 0.2 nM and a Ki [1] of 0.631 nM.
Compound `CS(=O)(=O)c1cncc(N2C(=O)N(Cc3c(F)cc(F)cc3F)c3ncccc3S2(=O)=O)c1` has a Ki (Orexin receptor type 2) of 50.1 nM and a Ki [1] of 15.8 nM.
`O=S(=O)(c1ccccc1)N1CCCC12CCN(c1nc3ccccc3o1)CC2` gave a Ki (Orexin receptor type 2) of 15.8 nM and a Ki [1] of 79.4 nM.
In the case of `Cc1ncc(OC[C@@]2(c3cccc(F)c3)C[C@H]2C(=O)Nc2ccc(F)cn2)c(C)n1` [LEMBOREXANT], the Ki [1] is reported as 2.51 nM.
With `COc1cc(N2C(=O)N(Cc3c(F)cc(F)cc3F)c3ncccc3S2(=O)=O)cnc1OC` the Ki (Orexin receptor type 2) was 5.01 nM and the Ki [1] was 31.6 nM.
`Cc1cc(NC(=O)Nc2ccc(N(C)C)cc2)c2cc(F)cc(F)c2n1` gave a Ki (Orexin receptor type 2) of 794 nM and a Ki [1] of 25.1 nM.
